The values below come from patent US20090304755A1, “PHARMACEUTICAL FORMULATION OF LOSARTAN” (priority 2005, published 2009).

Data set [1] in a line: Specific surface area by gas adsorption analyzer method (BET). In kind it is physicochemical. Particulars: losartan active agent. From the text: The results of our investigations have shown that it is advantageous to use losartan, with a particle size d (0.9) less than 50μ measured by Malvern light scattering technique, and/or a specific particle specific surface area more than 0.6 m^2/g measured by the Gas adsorption analyzer method (BET).

Data set [2] in a line: Particle size by Malvern light scattering technique. The format is physicochemical. Particulars: particle size of losartan active agent. From the text: “d (0.9)” denotes a particle size wherein 90% (volume) particles have diameter less than the specified diameter d.
For data set [3] the following is noted: oral administration; cited from earlier work.

Molecules are shown by their SMILES.

Turning to `CCCCc1nc(Cl)c(CO)n1Cc1ccc(-c2ccccc2-c2nn[nH]n2)cc1` [A, Losartan Potassium], the “Specific Surface Area” value in data set [1] was “Specific Surface Area = 0.7-0.8 m^2/g”. Further, in data set [2], the “d (0.1)” value is “d (0.1) = 0.869μ”, the “d (0.5)” value is “d (0.5) = 10.077μ” and the “d (0.9)” value was “d (0.9) = 21.382μ”.
As to `CCCCc1nc(Cl)c(CO)n1Cc1ccc(-c2ccccc2-c2nn[nH]n2)cc1` [B, Losartan Potassium], the “Specific Surface Area” value in data set [1] is “Specific Surface Area = 0.4-0.5 m^2/g”. Besides, in data set [2], the “d (0.1)” value is reported as “d (0.1) = 1.806μ”, the “d (0.5)” value was “d (0.5) = 24.812μ” and the “d (0.9)” value was “d (0.9) = 53.931μ”.
Regarding `CCCCc1nc(Cl)c(CO)n1Cc1ccc(-c2ccccc2-c2nn[nH]n2)cc1` [losartan, Losartan], in data set [3], the systemic bioavailability result is reported as “approximately 33%”.
